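Dose response: 5 concentrations. Exposure: 48 h. Format: 96-well plates. Endpoint: linear interpolation; highest concentration if not reached. At the GI50, growth is halved.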 Activity calls are given as the source filed them. Rule as the data show it: active = GI50 up to about 1.1 µM and inactive = higher.
Tests used:
Assay in all cases: NCI-60 cell line screen, 48 h
[1] = test system: A549
[2] = test system: CAKI-1
[3] = test system: CCRF-CEM
[4] = test system: COLO 205
[5] = test system: HL-60
[6] = test system: HOP-92
[7] = test system: K562
[8] = test system: NCI-H23
[9] = test system: OVCAR-4
[10] = test system: OVCAR-5
[11] = test system: RPMI-8226
[12] = test system: SK-MEL-28
[13] = test system: U-251
[14] = test system: UACC-62
[15] = test system: UO-31
[16] = test system: Hs-578T
[17] = test system: NCI/ADR-RES
[18] = test system: PC-3
[19] = test system: T47D

Measured: GI50

COC(=O)C(Cc1nc2ccc(Cl)cc2nc1O)/C(=N/NC(N)=O)C(=O)Nc1ccc(Cl)cc1 (stereo unspecified)
inactive: [1] > 100 µM | [2] > 100 µM | [3] > 100 µM | [4] > 100 µM | [5] > 100 µM | [6] > 100 µM | [7] > 100 µM | [8] > 100 µM | [9] > 100 µM | [10] > 100 µM | [11] > 100 µM | [12] > 100 µM | [13] > 100 µM | [14] > 100 µM | [15] > 100 µM

O=C1Oc2ccccc2C(=O)/C1=C\Nc1nc(-c2ccccc2)cs1
inactive: [1] 31 µM | [2] 3.76 µM | [3] 1.35 µM | [4] 2.6 µM | [5] 1.45 µM | [6] 11.1 µM | [16] 15.7 µM | [7] 7.66 µM | [8] 16.7 µM | [17] 10.6 µM | [9] 58.7 µM | [10] 19 µM | [18] 16.9 µM | [11] 4.47 µM | [12] 16.1 µM | [19] 15.9 µM | [13] 11.8 µM | [14] 5.36 µM | [15] 7.8 µM

CN1c2ccccc2N(C)C2C1N(C)c1ccccc1N2C (stereo unspecified)
inactive: [1] 26.8 µM | [2] 15.1 µM | [3] 2.81 µM | [4] 10.8 µM | [5] 2.29 µM | [6] 10.4 µM | [7] 3.42 µM | [8] 16.8 µM | [9] 26 µM | [10] 59.3 µM | [11] 5.11 µM | [12] 4.69 µM | [13] 26.1 µM | [14] 5.15 µM | [15] 31.6 µM

CCCCCCCCCCCCCCCCCCOP1(=O)OCCO1
inactive: [1] 79.4 µM | [2] > 100 µM | [3] 54 µM | [4] > 100 µM | [5] 23.8 µM | [6] > 100 µM | [7] > 100 µM | [8] > 100 µM | [17] > 100 µM | [9] > 100 µM | [10] 74 µM | [18] 22.8 µM | [11] 37.4 µM | [12] > 100 µM | [19] > 100 µM | [13] 27.9 µM | [14] > 100 µM | [15] > 100 µM

Cc1c(C(=O)CC(=O)C(=O)Nc2ccccc2C(F)(F)F)[n+]([O-])c2ccccc2[n+]1[O-]
inactive: [1] 24.2 µM | [2] 26.7 µM | [3] 18.6 µM | [4] 12.3 µM | [5] 28.2 µM | [6] 16.2 µM | [7] 22 µM | [8] 17.4 µM | [9] 18.1 µM | [10] 26.8 µM | [11] 4.69 µM | [12] 27.4 µM | [13] 19.6 µM | [14] 18 µM | [15] 35.1 µM

COC(=O)c1ccc(CS(=O)(=O)c2ccccc2)cc1
inactive: [1] 67.8 µM | [2] > 100 µM | [3] > 100 µM | [4] 59.4 µM | [5] 76.6 µM | [6] > 100 µM | [7] > 100 µM | [8] > 100 µM | [9] > 100 µM | [10] > 100 µM | [11] > 100 µM | [12] > 100 µM | [13] > 100 µM | [14] 99.8 µM | [15] > 100 µM

N#Cc1cccc(N2C(=O)c3ccc(C(=O)c4ccc5c(c4)C(=O)N(c4cccc(C#N)c4)C5=O)cc3C2=O)c1
inactive: [1] > 100 µM | [2] > 100 µM | [3] > 100 µM | [4] > 100 µM | [5] > 100 µM | [6] 59 µM | [7] > 100 µM | [8] > 100 µM | [9] > 100 µM | [10] > 100 µM | [11] > 100 µM | [13] 35.8 µM | [14] > 100 µM | [15] > 100 µM

COc1cc2c(cc1O)[C@H](C)C(c1ccc(Cl)cc1)O2 (stereo partly specified)
inactive: [1] 24.9 µM | [2] 11.6 µM | [3] 14.5 µM | [4] 27.2 µM | [5] 14.2 µM | [6] 17.3 µM | [7] 18.3 µM | [8] 21 µM | [9] 32.1 µM | [10] 25.4 µM | [11] 6.34 µM | [12] 28.6 µM | [13] 19.1 µM | [14] 21.2 µM | [15] 24.4 µM

Reference: ChEMBL document CHEMBL1201862, “PubChem BioAssay data set” (2004)
